≈ marks a conversion by molar mass, not a printed value.
Experiments:
Clostridioides difficile [1] = experiment: Antibacterial activity against Clostridium difficile ATCC 43255 measured after 48 hrs by two fold serial dilution method; type: functional
THP-1 = experiment: Cytotoxicity against human THP-1 cells assessed as increase in LDH release incubate for 24 hrs by trypan-blue staining based analysis; type: functional, cell-based; settings: THP-1, 24 h
[2] = Selectivity ratio of IC50 for human THP-1 cells to MIC for Clostridium difficile ATCC 43255; type: toxicity
HepG2 = experiment: Antiproliferative activity against human HepG2 cells assessed as inhibition of cell growth by XTT assay; type: functional, cell-based
[3] = Selectivity ratio of IC50 for human HepG2 cells to MIC for Clostridium difficile ATCC 43255; type: toxicity
Clostridioides difficile [4] = experiment: Antibacterial activity against Clostridium difficile ATCC 43255 assessed as inhibition of bacterial growth by broth microdilution method; type: functional
Clostridioides difficile [5] = experiment: Antibacterial activity against Clostridium difficile BAA-1870 assessed as inhibition of bacterial growth by broth microdilution method; type: functional
Clostridioides difficile [6] = experiment: Antibacterial activity against Clostridium difficile BAA-1803 assessed as inhibition of bacterial growth by broth microdilution method; type: functional
Clostridioides difficile [7] = experiment: Antibacterial activity against Clostridium difficile NR49310 assessed as inhibition of bacterial growth by broth microdilution method; type: functional
Clostridioides difficile [8] = experiment: Antibacterial activity against Clostridium difficile NR49294 assessed as inhibition of bacterial growth by broth microdilution method; type: functional
Clostridioides difficile [9] = experiment: Antibacterial activity against Clostridium difficile NR49305 assessed as inhibition of bacterial growth by broth microdilution method; type: functional
Clostridioides difficile [10] = experiment: Antibacterial activity against Clostridium difficile NR49318 assessed as inhibition of bacterial growth by broth microdilution method; type: functional
Clostridioides difficile [11] = experiment: Antibacterial activity against Clostridium difficile NR49292 assessed as inhibition of bacterial growth by broth microdilution method; type: functional
Clostridioides difficile [12] = experiment: Antibacterial activity against Clostridium difficile NR49302 assessed as inhibition of bacterial growth by broth microdilution method; type: functional
Clostridioides difficile [13] = experiment: Antibacterial activity against Clostridium difficile 26675 assessed as inhibition of bacterial growth by broth microdilution method; type: functional
Clostridioides difficile [14] = experiment: Antibacterial activity against Clostridium difficile 23828 assessed as inhibition of bacterial growth by broth microdilution method; type: functional
Clostridioides difficile [15] = experiment: Antibacterial activity against Clostridium difficile 24531 assessed as inhibition of bacterial growth by broth microdilution method; type: functional
Staphylococcus aureus = experiment: Antibacterial activity against vancomycin-resistant Staphylococcus aureus clinical isolate 1 assessed as inhibition of bacterial growth by broth microdilution method; type: functional
[16] = tested on: Staphylococcus haemolyticus; experiment: Antibacterial activity against Staphylococcus haemolyticus ATCC 29970 assessed as inhibition of bacterial growth by broth microdilution method; type: functional
Streptococcus oralis = experiment: Antibacterial activity against Streptococcus oralis ATCC 9811 assessed as inhibition of bacterial growth by broth microdilution method; type: functional
Enterococcus faecium [17] = experiment: Antibacterial activity against vancomycin susceptible Enterococcus faecium119-39A assessed as inhibition of bacterial growth by broth microdilution method; type: functional; settings: 119-39A
Enterococcus faecium [18] = experiment: Antibacterial activity against vancomycin resistant Enterococcus faecium 106 assessed as inhibition of bacterial growth by broth microdilution method; type: functional
Bacteroides fragilis = experiment: Antibacterial activity against Bacteroides fragilis HM-709 assessed as inhibition of bacterial growth by broth microdilution method; type: functional
Bifidobacterium longum = experiment: Antibacterial activity against Bifidobacterium longum HM-846 assessed as inhibition of bacterial growth by broth microdilution method; type: functional
Corynebacterium sp. = experiment: Antibacterial activity against Corynebacterium sp. HM-784 assessed as inhibition of bacterial growth by broth microdilution method; type: functional
Fusobacterium nucleatum = experiment: Antibacterial activity against Fusobacterium nucleatum HM-992 assessed as inhibition of bacterial growth by broth microdilution method; type: functional
[19] = tested on: Limosilactobacillus reuteri; experiment: Antibacterial activity against Lactobacillus reuteri HM-102 assessed as inhibition of bacterial growth by broth microdilution method; type: functional
Lactobacillus gasseri = experiment: Antibacterial activity against Lactobacillus gasseri HM-644 assessed as inhibition of bacterial growth by broth microdilution method; type: functional
Veillonella = experiment: Antibacterial activity against Veillonella HM-49 assessed as inhibition of bacterial growth by broth microdilution method; type: functional
Eubacterium sp. = experiment: Antibacterial activity against Eubacterium sp. HM-178 assessed as inhibition of bacterial growth by broth microdilution method; type: functional
Klebsiella pneumoniae = experiment: Antibacterial activity against Klebsiella pneumoniae ATCC700603 assessed as inhibition of bacterial growth by broth microdilution method; type: functional
Acinetobacter baumannii = experiment: Antibacterial activity against Acinetobacter baumannii ATCC17961 assessed as inhibition of bacterial growth by broth microdilution method; type: functional
Pseudomonas aeruginosa = experiment: Antibacterial activity against Pseudomonas aeruginosa ATCC27853 assessed as inhibition of bacterial growth by broth microdilution method; type: functional
Klebsiella aerogenes = experiment: Antibacterial activity against Klebsiella aerogenes ATCC35029 assessed as inhibition of bacterial growth by broth microdilution method; type: functional
Escherichia coli = experiment: Antibacterial activity against Escherichia coli ATCC25922 assessed as inhibition of bacterial growth by broth microdilution method; type: functional

For `O=[N+]([O-])c1c[nH]c(-c2nc(-c3ccc(OC4CCC4)cc3)no2)n1`, which MIC (Clostridioides difficile [1]) is on record?
Its MIC is 0.25 µg/mL (≈ 0.764 µM).

What about the IC50 (THP-1) of the same compound?
Its IC50 is greater than 128 µg/mL.

What about the selectivity ratio [2] of the same compound?
Its selectivity ratio is greater than 512.

And the IC50 (HepG2)?
The IC50 was 41.9 µg/mL (≈ 128 µM).

What about the selectivity ratio [3] of the same compound?
The selectivity ratio was 168.

For `CCc1c(Cl)c(O)c(Cl)c(O)c1C(=O)O[C@H]1[C@H](O)[C@H](OC)[C@H](OC/C2=C\C=C\C[C@H](O)/C(C)=C/[C@H](CC)[C@@H](O[C@@H]3OC(C)(C)[C@@H](OC(=O)C(C)C)[C@H](O)[C@@H]3O)/C(C)=C/C(C)=C/C[C@@H]([C@@H](C)O)OC2=O)O[C@@H]1C` [FIDAXOMICIN], which MIC (Clostridioides difficile [4]) is on record?
The MIC was 0.06 µg/mL (≈ 0.0567 µM).

What about the MIC (Clostridioides difficile [5]) of the same compound?
The MIC was 0.25 µg/mL (≈ 0.236 µM).

What about the MIC (Clostridioides difficile [6]) of the same compound?
The MIC was 1 µg/mL (≈ 0.945 µM).

And the MIC (Clostridioides difficile [7])?
Its MIC is no more than 0.01 µg/mL.

And the MIC (Clostridioides difficile [8])?
Its MIC is 0.01 µg/mL (≈ 0.00945 µM).

What about the MIC (Clostridioides difficile [9]) of the same compound?
Its MIC is 0.01 µg/mL (≈ 0.00945 µM).

What about the MIC (Clostridioides difficile [10]) of the same compound?
Its MIC is 0.125 µg/mL (≈ 0.118 µM).

And the MIC (Clostridioides difficile [11])?
Its MIC is 0.5 µg/mL (≈ 0.473 µM).

And the MIC (Clostridioides difficile [12])?
Its MIC is 0.03 µg/mL (≈ 0.0284 µM).

And the MIC (Clostridioides difficile [13])?
The MIC was 4 µg/mL (≈ 3.78 µM).

What about the MIC (Clostridioides difficile [14]) of the same compound?
The MIC was greater than 8 µg/mL.

What about the MIC (Clostridioides difficile [15]) of the same compound?
The MIC was 0.01 µg/mL (≈ 0.00945 µM).

And the MIC (Staphylococcus aureus)?
The MIC was 64 µg/mL (≈ 60.5 µM).

What about the MIC [16] of the same compound?
The MIC was 16 µg/mL (≈ 15.1 µM).

And the MIC (Streptococcus oralis)?
Its MIC is 32 µg/mL (≈ 30.2 µM).

What about the MIC (Enterococcus faecium [17]) of the same compound?
The MIC was greater than 16 µg/mL.

And the MIC (Enterococcus faecium [18])?
Its MIC is greater than 16 µg/mL.

And the MIC (Bacteroides fragilis)?
The MIC was greater than 32 µg/mL.

And the MIC (Bifidobacterium longum)?
Its MIC is less than 0.01 µg/mL.

And the MIC (Corynebacterium sp.)?
Its MIC is less than 0.06 µg/mL.

What about the MIC (Fusobacterium nucleatum) of the same compound?
The MIC was less than 0.06 µg/mL.

What about the MIC [19] of the same compound?
The MIC was greater than 32 µg/mL.

What about the MIC (Lactobacillus gasseri) of the same compound?
Its MIC is 2 µg/mL (≈ 1.89 µM).

What about the MIC (Veillonella) of the same compound?
The MIC was 8 µg/mL (≈ 7.56 µM).

And the MIC (Eubacterium sp.)?
Its MIC is 16 µg/mL (≈ 15.1 µM).

What about the MIC (Klebsiella pneumoniae) of the same compound?
Its MIC is greater than 128 µg/mL.

And the MIC (Acinetobacter baumannii)?
Its MIC is greater than 128 µg/mL.

And the MIC (Pseudomonas aeruginosa)?
The MIC was greater than 128 µg/mL.

And the MIC (Klebsiella aerogenes)?
Its MIC is greater than 128 µg/mL.

What about the MIC (Escherichia coli) of the same compound?
Its MIC is greater than 128 µg/mL.
